From patent US12656344B2, “CTL peptide epitopes and antigen-specific T cells, methods for their discovery, and uses thereof” (Oslo universitetssykehus HF, priority 2013, dated 2026)
Where no end group is shown, it is not given here.

Key:
[1] = system: primary T cells transduced with a MART-1 specific TCR; experiment: Binding of alanine-replaced peptide #25 multimers to MART-1 TCR transduced T cells; format: cell-based, human; settings: specificity control for alanine-replaced multimers
[2] = system: T cell clones reactive to MPO peptide #25; experiment: Binding of HLA-A2 multimers with alanine-substituted MPO peptide #25 to T cell clones; format: cell-based, human; settings: PE-conjugated multimers; 3 T cell clones from CTL line #25; flow cytometry
Experimental: FIG. 6A-C. […] (A) Assays were performed as described in FIG. 2, except that only degranulation responses were measured. […] (B) Three of the clones shown in (A) were examined for binding of PE-conjugated HLA-A2 multimers containing the #25 peptide with and without an alanine substitution in each position, using flow cytometry.
To obtain more information on the range of T cell reactivities to one of these novel T cell epitopes, T-cell clones were generated from CTL line #25, specific for MPO epitope […] (SEQ ID NO:45).

## P506A: MPO peptide #25 (LIQPFMFRL) with an alanine-replacement in position 4, in HLA-A2 multimer (LIQAFMFRL; also: in HLA-A2 multimer) [Peptide P506A]
[1]
  Multimer binding to primary T cells transduced with a MART-1 specific TCR: bound non-specifically
[2]
  HLA-A2 multimer binding of alanine-substituted #25 peptide relative to WT peptide: higher binding
